Results on one molecule are retold here after patent US8361999B2, “Methods of treating cholesterol gallstone disease with ezetimibe” (Pontificia Universidad Catolica de Chile, priority 2005, dated 2013).

For assay [1], the system named is C57BL/6J mice. In words: Lipid content and cholesterol saturation index in gallbladder bile. The format is in vivo, mouse. The conditions noted are these: for Gallbladder Bile Bile salts / Gallbladder Bile Cholesterol / Gallbladder Bile Colesterol Saturation Index / Gallbladder Bile Phospholipids: 14 days. On the procedure: (§1) Surgery and sample harvest. The groups were maintained for 14 days (protocol #1) or 30 days (protocol #2) in the different experimental conditions. During the last three days of the protocols, 24 h depositions were collected from the different groups (pool) to determine the fecal excretion of neutral sterols (cholesterol) and acidic sterols (bile salts). At the end of the time established in the protocols, the mice were anesthetized (between 08:00-10:00 AM) with an intraperitoneal pentobarbital injection in doses of 4.5 mg per 100 gr body weight (Amigo et al., 2000) and subjected to surgery. Standardized surgery consists in an extended […] and visualization of abdominal organs, including liver, biliary tree and gallbladder. First, we performed a resection of the gallbladder (cholecystectomy), with the cystic duct previously ligated (Amigo et al., 2002; Amigo et al., 2000; Amigo et al., 2003b). The gallbladder is removed and visually inspected to determine the presence of gallstones. Then, the gallbladder bile is extracted to analyze the presence of cholesterol crystals in the fresh samples under the microscope with polarized light (20×). Aliquots are stored at −20° C. for subsequent chemical analysis. Afterwards, the common biliary duct is cannulated (biliary fistula) with a P-10 polyethylene cannula to collect bile during 15 minutes, determine bile flow by gravimetry (1 g bile=1 ml; bile flow is expressed as μl/min/g of mouse liver) and for posterior chemical analysis of biliary lipids and glutathione, as specified later. […] Then, the liver is removed, weighted, frozen in liquid nitrogen and stored at −80 for subsequent analyses. The plasma is separated by centrifugation at 1,500 rpm and stored at −80° C. for later analysis. The animal protocols were approved by our institution Ethics Committee and the animals were treated according to international care rules for experimental animals.
Intestinal absorption of cholesterol and bile salts. The capacity of Ezetimibe to inhibit cholesterol and bile salt absorption was indirectly determined by quantification of neutral sterols (cholesterol) and acidic sterols (bile acids) present in the feces collected on day 12, 13 and 14 of the experiment (three days). In order to determine cholesterol (neutral sterols) fecal excretion, the feces were dried at 50° C. for three days and then weighted to obtain an average of fecal excretion per day (in grams). The feces were homogenized in a mortar, and 5 ml 2N NaOH:methanol, 1:1 are added per 100 mg (dry weight) aliquots of the homogenate. The sample is vortex and incubated at 60° C. for 1 h for saponification, then it is cooled and 5 ml petroleum ether is added followed by vigorous agitation to obtain the separation of the hydrophobic and hydrophilic phases. The samples are then centrifuged at 1,000 rpm for 10 minutes and the hydrophobic phase (upper layer) is recovered. Second and third extractions are performed by adding 5 ml petroleum ether to the hydrophilic phase. The hydrophobic phases are dried under gaseous nitrogen and the lipids are resuspended in 1 ml chloroform. 50 μl aliquots, in duplicate, are dried at room temperature, and total cholesterol is quantified according to the enzymatic method described above. The values obtained are expressed as μmoles cholesterol/day/100 g of mouse (Miettinen et al., 1965). In order to determine fecal excretion of bile acids the mice feces were collected during three days (days 12-14), dried at 50° C. for one week and weighted. The feces are then homogenized in a mortar; (^14C) cholic acid, 200,000 cpm is added to 1 g of the homogenate to determine the degree of recovery. The samples are then mixed with NaBr, NaOH and HCl, dissolved in ethanol and incubated at 120° C. for 8 h in a reflux system. The hydrolyzed fecal samples are resuspended in NaOH and dried under gaseous N2. The pellet obtained is resuspended in ethanol and run through Sep-Pak columns to eliminate all bile salts contaminants. […]

For assay [2], the system named is C57BL/6J mice. In words: Biliary flow and hepatic secretion of biliary lipids. The format is in vivo, mouse. Here is the method:
as §1
Intestinal absorption of cholesterol and bile salts. The capacity of Ezetimibe to inhibit cholesterol and bile salt absorption was indirectly determined by quantification of neutral sterols (cholesterol) and acidic sterols (bile acids) present in the feces collected on day 12, 13 and 14 of the experiment (three days). In order to determine cholesterol (neutral sterols) fecal excretion, the feces were dried at 50° C. for three days and then weighted to obtain an average of fecal excretion per day (in grams). […] 50 μl aliquots, in duplicate, are dried at room temperature, and total cholesterol is quantified according to the enzymatic method described above. The values obtained are expressed as μmoles cholesterol/day/100 g of mouse (Miettinen et al., 1965). […]

For the next assay, the system named is Ntcp. In words: Hepatic expression of bile salts transporter Ntcp (Western blot). The format is in vivo, mouse. From the text:
(§2) Expression of Specific Bile Salts (Ntcp, Bsep), Phospholipid (MDR2) and Organic Anions or Glutathione (MRP2); And Determination of Glutathione Synthesis (Gluthamylcystein-Synthetase (GGCS)).
(§3) Western Blot analysis. We evaluated protein expression levels of the bile salts transporters Ntcp (sinusoidal pole) and Bsep (cannicular pole) by Western blotting in total liver membranes or liver plasma membranes from mice treated with the different diets. Total membranes were obtained from liver fragments homogenized in Tris-HCl pH 7.5, MgCl2 and sucrose. The homogenates were centrifuged at 1,000 g to separate nuclei, and the supernatants were then centrifuged at 100,000 g. The pellet, containing the total membranes, was resuspended in the buffer described above and proteins were quantified by the Bradford method. Aliquots containing 50 μg protein were separated by SDS-PAGE and transfer to nitrocellulose. The membranes were incubated in buffer TBS-T (Tris-HCl pH 7.5, NaCl and Tween-20), milk 5% w/v plus the antibodies to evaluate the different proteins (Bsep, Ntcp). The secondary antibodies were IgG anti rabbit or anti mouse coupled to peroxidase. The protein signals were detected by the ECL method.
(In general: A western blot detects proteins with antibodies after separation by electrophoresis.)

A further assay has as its system Bsep. In words: Hepatic expression of bile salts transporter Bsep (Western blot). The format is in vivo, mouse.
Description: as §2, §3

A further assay concerns cholesterol absorption. The conditions noted are these: relative to SCH 48461; cited from earlier work.

With `O=C1[C@H](CC[C@H](O)c2ccc(F)cc2)[C@@H](c2ccc(O)cc2)N1c1ccc(F)cc1` [Ezetimibe, (−)-1-(4-fluorophenyl)-(3R)-[3-(4-fluorophenyl)-(.S)-hydroxypropyl]-(4S)-(4-hydroxyphenyl)-2-azetidinone], in the assay with C57BL/6J mice [1] (Chow + Ezetimibe), the “Gallbladder Bile Bile salts” value is on record as 65.00 mmol/L, the “Gallbladder Bile Cholesterol” value came to 1.19 mmol/L, the “Gallbladder Bile Colesterol Saturation Index” value is on record as 51.7% and the “Gallbladder Bile Phospholipids” value turned out to be 11.62 mmol/L. For the same molecule, in the assay on C57BL/6J mice [1] (Lithogenic + Ezetimibe), the “Gallbladder Bile Bile salts” value was 70.37 mmol/L, the “Gallbladder Bile Cholesterol” value was 1.35 mmol/L, the “Gallbladder Bile Colesterol Saturation Index” value is given as 53.2% and the “Gallbladder Bile Phospholipids” value amounted to 12.92 mmol/L. In the assay on C57BL/6J mice [1] (control diet), the “changes in cholesterol content, bile salts or lecitine in gallbladder bile” value is listed as “did not induce significant changes” and the “cholesterol saturation index, with vs without Ezetimibe” value was “similar”. Further, in the assay with C57BL/6J mice [1] (lithogenic diet), the “decrease of cholesterol content in the gallbladder bile” value is recorded as 50-60% and the “reduction in the cholesterol saturation index” value was determined as 50%. In the assay with C57BL/6J mice [2] (lithogenic diet), the “biliary flow larger than in the group on lithogenic diet without ezetimibe (significant)” value was 50-60%. For the same molecule, in the assay on C57BL/6J mice [2] (lithogenic diet (FIG. 3)), the “secretion of bile salts and phospholipids vs group without ezetimibe” value is reported as “increase”; the “secretion of biliary cholesterol vs group without ezetimibe” value was “did not associate to a greater secretion”. Further, the “increase in biliary flow (slight, non-significant)” value in the assay with C57BL/6J mice [2] (low cholesterol control diet) is reported as 30-40%. The “hepatic expression of Ntcp, lithogenic diet plus Ezetimibe vs lithogenic diet” value with Ntcp (14 days) is on record as “no significant differences”. The “decrease of Ntcp protein expression level on a lithogenic diet” value in the assay on Ntcp (FIG. 6 B, lithogenic diet with Ezetimibe vs plus water) is listed as “significantly attenuated”. In addition, the “hepatic expression of Bsep, lithogenic diet plus Ezetimibe vs lithogenic diet” value in the assay on Bsep (14 days) is on record as “no significant differences”. Besides, the “Bsep hepatic protein expression level with Ezetimibe” value in the assay with Bsep (FIG. 6 A, on both diets) is “does not show significant changes”. Moreover, the “inhibitory activity in cholesterol absorption higher than predecessor analog (SCH 48461)” value in the assay with cholesterol absorption is 400 times.
